Counter-ions that a name gives are not always drawn. The source made the active and inactive calls.
Tests used:
HeLa = assay: HeLa cell cytotoxicity, dose response, cytotoxicity control for MITF activator project, CellTiter-Glo luminescence, cherry-pick samples (AID 540259); format: functional, cell-based; settings: Homo sapiens
[1] = molecular target: T1, Nuclear receptor subfamily 0 group B member 1 (Homo sapiens, UniProt P51843); assay: Luminescence-based cell-based high throughput dose response assay for inhibitors of the orphan nuclear receptor subfamily 0, group B, member 1 (DAX1; NR0B1). [Related pubchem assays (depositor defined):AID504766, AID504790]; format: functional
T1 sequence (P51843 whole entry): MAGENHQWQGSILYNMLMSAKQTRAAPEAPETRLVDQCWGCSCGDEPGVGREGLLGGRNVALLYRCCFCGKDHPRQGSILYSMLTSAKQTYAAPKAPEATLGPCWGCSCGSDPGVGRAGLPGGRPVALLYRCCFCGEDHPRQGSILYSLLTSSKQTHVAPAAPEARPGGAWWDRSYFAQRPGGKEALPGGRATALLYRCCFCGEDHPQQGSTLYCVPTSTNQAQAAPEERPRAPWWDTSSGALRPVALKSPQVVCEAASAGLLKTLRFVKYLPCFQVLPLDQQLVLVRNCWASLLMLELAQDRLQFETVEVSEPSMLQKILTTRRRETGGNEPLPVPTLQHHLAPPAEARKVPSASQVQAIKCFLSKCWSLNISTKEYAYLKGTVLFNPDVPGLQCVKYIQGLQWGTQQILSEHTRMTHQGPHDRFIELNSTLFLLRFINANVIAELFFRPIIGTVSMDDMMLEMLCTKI

HEK293 [2] = assay: cells; format: functional, cell-based; settings: Homo sapiens
BJ [3] = assay: cytotoxicity toward Ras-transformed BJeLR fibroblasts, dose response, cell-based, alamar blue fluorescence, cherrypicked samples (AID 2631); format: functional; settings: Homo sapiens;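 note: confirmatory dose-response assay in RAS-dependent BJ fibroblasts engineered with TERT, LT and ST, with cytotoxicity read by fluorescence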
BJ [4] = assay: cytotoxicity toward BJ-TERT-LT-ST fibroblasts, dose response, cell-based, RAS-independent, luminescence (AID 1935); format: functional; settings: Homo sapiens;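 note: BJ fibroblasts immortalized with TERT plus LT and ST oncogenes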
[5] = cytotoxicity toward DRD oncogenic fibroblasts, dose response, cell-based, non-viral oncogenic, luminescence (AID 1934); format: functional; settings: Homo sapiens
BJ [6] = assay: cytotoxicity toward BJ-TERT fibroblasts, dose response, cell-based, RAS-independent, luminescence (AID 1933); format: functional; settings: Homo sapiens
BJ [7] = assay: cells; format: functional, cell-based; settings: Homo sapiens
[8] = molecular target: Luciferin 4-monooxygenase (Photinus pyralis, UniProt P08659); assay: firefly luciferase enzyme inhibitors, dose response, biochemical, luminescence (AID 1891)
[9] = Luminescence Cell-Based Dose Confirmation HTS to Identify Inhibitors of Platelet Dense Granule Release. [Related pubchem assays: 1663 (Primary HTS), 1678 (Summary of Project)]; format: functional
[10] = molecular target: ATP-dependent molecular chaperone HSP82 (Candida albicans (strain WO-1) (Yeast), UniProt C4YTQ8); assay: loss of DOC-induced GRE-beta-galactosidase reporter signal, dose response, Hsp90 inhibitor project, S. cerevisiae, luminescence (AID 2400); format: functional, cell-based;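 note: beta-galactosidase luminescence from glucocorticoid response element reporter as proxy for Hsp90 function; inhibitor potency where signal loss means Hsp90 inhibition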
[11] = C. albicans growth with fluconazole, confirmation, fluorescence, retest (AID 2467); format: functional, cell-based
[12] = molecular target: T2, Serine/threonine-protein phosphatase (Candida dubliniensis (strain CD36 / CBS 7987 / NCPF 3949 / NRRLY-17841) (Yeast), UniProt B9W6M3); assay: calcineurin pathway inhibitors in yeast reporter, dose response, S. cerevisiae, CDRE-lacZ, luminescence, secondary (AID 2388); format: functional, cell-based;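 note: yeast reporter cells carrying a calcineurin-responsive lacZ construct stimulated with calcium chloride; luminescent beta-galactosidase reporter signal in whole cells rather than isolated phosphatase activity; potency for inhibition where a drop in reporter signal means calcineurin blockade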
T2 sequence (B9W6M3 whole entry): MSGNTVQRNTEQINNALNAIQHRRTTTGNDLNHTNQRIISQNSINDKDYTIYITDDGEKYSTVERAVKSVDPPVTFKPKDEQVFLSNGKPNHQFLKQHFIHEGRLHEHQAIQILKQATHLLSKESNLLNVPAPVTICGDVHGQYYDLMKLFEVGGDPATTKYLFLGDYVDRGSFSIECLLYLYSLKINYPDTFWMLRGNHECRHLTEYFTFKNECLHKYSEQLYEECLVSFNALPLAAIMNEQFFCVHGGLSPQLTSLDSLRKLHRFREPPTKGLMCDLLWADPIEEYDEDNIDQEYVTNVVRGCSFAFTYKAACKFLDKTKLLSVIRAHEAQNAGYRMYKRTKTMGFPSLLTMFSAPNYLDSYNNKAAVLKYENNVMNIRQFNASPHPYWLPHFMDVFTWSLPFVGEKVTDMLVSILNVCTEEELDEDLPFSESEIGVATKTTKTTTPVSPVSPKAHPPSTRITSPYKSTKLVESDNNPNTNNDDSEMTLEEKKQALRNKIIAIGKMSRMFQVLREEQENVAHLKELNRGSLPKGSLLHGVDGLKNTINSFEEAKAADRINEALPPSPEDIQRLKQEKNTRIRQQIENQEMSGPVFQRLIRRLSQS

[13] = NIH-3T3 fibroblast cytotoxicity, dose response, cytotoxicity control, cell-based, fluorescence, Alamar Blue, secondary assay (AID 2327); format: functional;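 note: NIH-3T3 mouse fibroblasts cultured with fluconazole at 8 µg/mL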
Escherichia coli [14] = assay: microbe, parasite or virus in culture
HEK293 [15] = assay: inhibitors of LMP1-driven NF-kB reporter, dose response, cell-based, HEK293, luciferase, cherry-pick (AID 588343); format: functional; settings: Homo sapiens
Escherichia coli [16] = assay: microbe, parasite or virus in culture; remark: listed apart in the source
Genome polyprotein = Genome polyprotein (dengue virus type 2, UniProt P29990); assay: Dengue-2 NS5 methyltransferase inhibitors, primary screen, biochemical, confirmation dose response (AID 588689); format: functional
Vero [17] = assay: Vero cell cytotoxicity, cytotoxicity control for flavivirus capping enzyme inhibitors (AID 588742); format: functional; settings: Chlorocebus sabaeus
[18] = THP-1 cell cytotoxicity, dose response, cytotoxicity control for Vif-APOBEC3G degradation inhibitor project, THP-1 cells (AID 1117359); format: functional; settings: Human immunodeficiency virus 1, THP-1
Vero [19] = assay: cells; format: functional; settings: Chlorocebus sabaeus

Sequence of ATP-dependent molecular chaperone HSP82 (C4YTQ8 whole entry): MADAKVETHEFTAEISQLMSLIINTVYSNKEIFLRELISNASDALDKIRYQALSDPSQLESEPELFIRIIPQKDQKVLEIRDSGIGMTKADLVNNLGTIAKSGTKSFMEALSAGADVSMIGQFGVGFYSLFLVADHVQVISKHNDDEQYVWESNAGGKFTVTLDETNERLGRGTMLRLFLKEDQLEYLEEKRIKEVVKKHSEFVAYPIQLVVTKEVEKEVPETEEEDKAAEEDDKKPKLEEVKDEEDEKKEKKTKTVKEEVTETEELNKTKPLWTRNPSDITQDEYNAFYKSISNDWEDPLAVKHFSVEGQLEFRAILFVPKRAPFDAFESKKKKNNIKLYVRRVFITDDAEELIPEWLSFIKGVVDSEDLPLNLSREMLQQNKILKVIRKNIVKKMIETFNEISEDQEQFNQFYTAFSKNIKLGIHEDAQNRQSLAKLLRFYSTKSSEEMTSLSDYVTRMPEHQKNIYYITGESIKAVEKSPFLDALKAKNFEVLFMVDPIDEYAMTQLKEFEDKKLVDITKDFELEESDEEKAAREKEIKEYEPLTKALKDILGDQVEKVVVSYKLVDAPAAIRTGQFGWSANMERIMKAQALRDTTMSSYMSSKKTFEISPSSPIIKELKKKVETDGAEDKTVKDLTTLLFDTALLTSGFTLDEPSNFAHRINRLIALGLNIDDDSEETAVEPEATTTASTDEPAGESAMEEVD
Sequence of Genome polyprotein (P29990 2492-3391 limits assumed): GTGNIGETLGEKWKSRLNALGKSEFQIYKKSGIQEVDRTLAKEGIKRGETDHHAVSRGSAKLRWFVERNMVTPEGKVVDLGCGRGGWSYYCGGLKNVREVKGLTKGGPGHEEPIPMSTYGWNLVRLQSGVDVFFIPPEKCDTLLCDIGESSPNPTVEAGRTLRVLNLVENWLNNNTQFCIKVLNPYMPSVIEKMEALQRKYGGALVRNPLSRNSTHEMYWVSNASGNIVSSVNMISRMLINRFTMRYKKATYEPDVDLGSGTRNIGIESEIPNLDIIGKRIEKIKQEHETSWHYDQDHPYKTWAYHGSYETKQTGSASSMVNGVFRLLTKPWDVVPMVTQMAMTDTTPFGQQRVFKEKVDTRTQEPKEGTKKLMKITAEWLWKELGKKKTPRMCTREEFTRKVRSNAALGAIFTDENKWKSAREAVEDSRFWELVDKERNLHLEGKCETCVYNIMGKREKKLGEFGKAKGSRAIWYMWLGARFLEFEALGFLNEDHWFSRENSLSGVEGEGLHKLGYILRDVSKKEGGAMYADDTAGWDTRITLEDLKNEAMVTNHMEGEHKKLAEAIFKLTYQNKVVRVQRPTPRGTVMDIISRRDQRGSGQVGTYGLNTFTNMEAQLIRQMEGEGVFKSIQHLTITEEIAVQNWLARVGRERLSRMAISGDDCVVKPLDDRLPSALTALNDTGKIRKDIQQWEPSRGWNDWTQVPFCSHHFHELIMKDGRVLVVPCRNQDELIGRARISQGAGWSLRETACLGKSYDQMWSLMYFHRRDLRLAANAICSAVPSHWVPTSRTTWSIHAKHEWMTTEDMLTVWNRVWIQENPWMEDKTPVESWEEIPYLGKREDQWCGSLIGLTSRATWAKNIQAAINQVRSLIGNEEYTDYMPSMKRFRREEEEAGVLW
Sequence of Luciferin 4-monooxygenase (P08659 whole entry): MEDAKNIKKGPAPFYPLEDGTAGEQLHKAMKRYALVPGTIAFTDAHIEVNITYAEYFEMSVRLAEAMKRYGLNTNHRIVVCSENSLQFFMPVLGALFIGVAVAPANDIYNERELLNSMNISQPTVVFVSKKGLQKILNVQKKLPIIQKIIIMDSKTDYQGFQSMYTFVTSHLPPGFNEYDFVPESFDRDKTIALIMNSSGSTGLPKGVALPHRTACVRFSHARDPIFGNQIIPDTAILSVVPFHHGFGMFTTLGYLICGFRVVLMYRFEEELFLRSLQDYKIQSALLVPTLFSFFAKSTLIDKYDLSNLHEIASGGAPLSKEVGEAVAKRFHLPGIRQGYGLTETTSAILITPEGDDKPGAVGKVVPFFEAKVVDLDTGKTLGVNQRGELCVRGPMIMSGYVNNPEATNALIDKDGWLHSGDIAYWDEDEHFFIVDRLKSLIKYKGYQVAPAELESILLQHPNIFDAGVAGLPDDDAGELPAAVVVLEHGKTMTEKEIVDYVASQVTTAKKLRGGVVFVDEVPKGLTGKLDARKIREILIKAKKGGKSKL

c1ccc(CCn2nnc3ccccc32)cc1
AC50 (HeLa): 207 µM (active)

CCOc1cccc(C(=O)NC2=NCCS2)c1
IC50 [1]: > 67.5 µM (inactive) | IC50 (HEK293 [2]): > 67.5 µM (inactive)

Cc1cccc(OCC(=O)Nc2ccc(C(=O)NCc3cccnc3)cc2)c1
EC50 (BJ [3]): 17.3 µM (active) | EC50 (BJ [4]): > 150 µM (inconclusive) | EC50 [5]: > 150 µM (not active) | EC50 (BJ [6]): > 150 µM (not active) | EC50 (BJ [7]): 8.97 µM (inconclusive)

CN(C)/C=C(/C(=O)c1ccc(Cl)c(Cl)c1)c1nnnn1-c1ccccc1
IC50 [1]: > 67.5 µM (inactive) | IC50 (HEK293 [2]): > 67.5 µM (inactive)

CCSc1nnc(NC(=O)C2CC2c2ccccc2)s1 (centres undefined)
EC50 [8]: > 112 µM (not active) | IC50 [1]: > 67.5 µM (inactive) | EC50 [9]: > 112 µM (not active) | IC50 (HEK293 [2]): > 67.5 µM (inactive)

CC(C)(C)c1ccc(Cc2nnc(S)nc2O)cc1
EC50 [10]: 9.48 µM (active) | EC50 [11]: 0.368 µM (active) | EC50 [12]: 20.2 µM (active) | EC50 [13]: > 160 µM (inactive)

Cc1cc(CNC(=O)c2cc(COc3ccc(F)c(F)c3)on2)nn1C
AC50 (HeLa): 66.8 µM (active)

CN(C)c1ccnc2sc3c(SCc4ccc(Cl)cc4)ncnc3c12
AC50 (HeLa): 63.3 µM (active)

CCOC(=O)c1nc(NCc2ccccc2F)c2ccccc2n1
AC50 (Escherichia coli [14]): > 150 µM (inactive) | AC50 (HEK293 [15]): > 350 µM (inactive) | AC50 (Escherichia coli [16]): 52.7 µM (active)

Cc1cc(C)c2c(N)c(C(=O)Nc3ccc(C)c(C)c3)sc2n1
IC50 [1]: > 67.6 µM (inactive) | IC50 (HEK293 [2]): > 67.6 µM (inactive)

O=C(/C(=N/N=C/c1ccc(O)c(O)c1O)c1ccccc1)c1ccccc1
EC50 [10]: 5.97 µM (active) | EC50 [11]: 4.04 µM (active) | IC50 (Genome polyprotein): 50.1 µM (active) | EC50 [12]: > 180 µM (inactive) | EC50 [13]: > 150 µM (inactive) | CC50 (Vero [17]): 9.15 µM (active) | CC50 [18]: 16.6 µM (active)

O=C(N/N=C/c1cccn1-c1ccc([N+](=O)[O-])cc1)c1cccnc1
CC50 (Vero [19]): > 25 µM (active)

COc1ccc2c(c1)CC/C2=N\OC(=O)c1ccccc1C
AC50 (HeLa): 51.1 µM (active)

CC1=C(CC[C@@H](C)CO)O[C@H]2C[C@H]3[C@@H]4CC[C@H]5C[C@@H](O)CC[C@]5(C)[C@H]4CC(=O)[C@]3(C)[C@@H]12
EC50 [10]: > 150 µM (inactive) | EC50 [11]: 0.383 µM (active) | EC50 [12]: > 180 µM (inactive) | EC50 [13]: > 150 µM (inactive)

COc1cc2nc(N3CCN(C(=O)c4ccco4)CC3)nc(N)c2cc1OC [PRAZOSIN HYDROCHLORIDE]
CC50 (Vero [19]): 16.9 µM (active)
